Results reported in paper doi:10.1101/2021.04.08.439011v1 (biorxiv, 2021).

Key:
Settings in all cases: 0.1 µM; binder
[1] = target: JAK3(JH1domain-catalytic) (Homo sapiens, UniProt P52333)
[2] = target: RSK2(Kin.Dom.2-C-terminal) (Homo sapiens, UniProt P51812)
[3] = target: TYK2(JH1domain-catalytic) (Homo sapiens, UniProt P29597)
[4] = target: RPS6KA4(Kin.Dom.1-N-terminal) (Homo sapiens, UniProt O75676)
[5] = target: RSK1(Kin.Dom.1-N-terminal) (Homo sapiens, UniProt Q15418)
PFCDPK1 (P. falciparum) = PFCDPK1 (P. falciparum) (Plasmodium falciparum, UniProt P62344)
Sequence of PFCDPK1 (P. falciparum) (P62344 whole entry): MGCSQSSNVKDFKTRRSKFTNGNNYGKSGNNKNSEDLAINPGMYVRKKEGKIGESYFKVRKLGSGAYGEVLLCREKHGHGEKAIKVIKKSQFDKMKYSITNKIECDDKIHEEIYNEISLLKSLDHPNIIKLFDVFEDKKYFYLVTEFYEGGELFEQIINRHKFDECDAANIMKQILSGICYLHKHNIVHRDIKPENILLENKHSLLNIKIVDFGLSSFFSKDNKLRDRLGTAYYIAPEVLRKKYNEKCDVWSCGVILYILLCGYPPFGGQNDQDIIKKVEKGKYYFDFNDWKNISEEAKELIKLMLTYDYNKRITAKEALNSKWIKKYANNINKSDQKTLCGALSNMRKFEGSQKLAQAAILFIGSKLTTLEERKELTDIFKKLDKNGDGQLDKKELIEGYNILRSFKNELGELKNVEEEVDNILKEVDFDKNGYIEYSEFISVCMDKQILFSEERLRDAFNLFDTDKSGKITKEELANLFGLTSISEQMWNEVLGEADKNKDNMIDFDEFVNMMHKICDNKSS

Sequence of RPS6KA4(Kin.Dom.1-N-terminal) (O75676 whole entry): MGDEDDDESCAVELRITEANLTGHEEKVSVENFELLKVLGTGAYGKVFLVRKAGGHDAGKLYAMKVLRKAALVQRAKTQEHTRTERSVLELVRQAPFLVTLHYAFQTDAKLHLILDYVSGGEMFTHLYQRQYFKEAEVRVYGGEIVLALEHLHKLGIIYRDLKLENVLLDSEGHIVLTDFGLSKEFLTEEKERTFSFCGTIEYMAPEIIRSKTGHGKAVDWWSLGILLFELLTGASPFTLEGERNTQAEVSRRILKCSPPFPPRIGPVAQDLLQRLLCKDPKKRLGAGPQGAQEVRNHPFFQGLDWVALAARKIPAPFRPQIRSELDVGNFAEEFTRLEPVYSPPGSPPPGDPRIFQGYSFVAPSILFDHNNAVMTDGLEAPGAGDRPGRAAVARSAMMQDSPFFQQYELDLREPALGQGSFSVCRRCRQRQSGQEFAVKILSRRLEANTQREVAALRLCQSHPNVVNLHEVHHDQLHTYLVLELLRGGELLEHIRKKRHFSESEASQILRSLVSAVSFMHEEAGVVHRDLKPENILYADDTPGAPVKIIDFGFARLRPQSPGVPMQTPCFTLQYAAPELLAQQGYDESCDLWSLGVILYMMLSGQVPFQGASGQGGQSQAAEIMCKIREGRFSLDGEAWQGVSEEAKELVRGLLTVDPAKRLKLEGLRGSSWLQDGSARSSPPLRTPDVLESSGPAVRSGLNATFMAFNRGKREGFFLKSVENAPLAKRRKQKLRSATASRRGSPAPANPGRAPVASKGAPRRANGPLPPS
Sequence of JAK3(JH1domain-catalytic) (P52333 whole entry): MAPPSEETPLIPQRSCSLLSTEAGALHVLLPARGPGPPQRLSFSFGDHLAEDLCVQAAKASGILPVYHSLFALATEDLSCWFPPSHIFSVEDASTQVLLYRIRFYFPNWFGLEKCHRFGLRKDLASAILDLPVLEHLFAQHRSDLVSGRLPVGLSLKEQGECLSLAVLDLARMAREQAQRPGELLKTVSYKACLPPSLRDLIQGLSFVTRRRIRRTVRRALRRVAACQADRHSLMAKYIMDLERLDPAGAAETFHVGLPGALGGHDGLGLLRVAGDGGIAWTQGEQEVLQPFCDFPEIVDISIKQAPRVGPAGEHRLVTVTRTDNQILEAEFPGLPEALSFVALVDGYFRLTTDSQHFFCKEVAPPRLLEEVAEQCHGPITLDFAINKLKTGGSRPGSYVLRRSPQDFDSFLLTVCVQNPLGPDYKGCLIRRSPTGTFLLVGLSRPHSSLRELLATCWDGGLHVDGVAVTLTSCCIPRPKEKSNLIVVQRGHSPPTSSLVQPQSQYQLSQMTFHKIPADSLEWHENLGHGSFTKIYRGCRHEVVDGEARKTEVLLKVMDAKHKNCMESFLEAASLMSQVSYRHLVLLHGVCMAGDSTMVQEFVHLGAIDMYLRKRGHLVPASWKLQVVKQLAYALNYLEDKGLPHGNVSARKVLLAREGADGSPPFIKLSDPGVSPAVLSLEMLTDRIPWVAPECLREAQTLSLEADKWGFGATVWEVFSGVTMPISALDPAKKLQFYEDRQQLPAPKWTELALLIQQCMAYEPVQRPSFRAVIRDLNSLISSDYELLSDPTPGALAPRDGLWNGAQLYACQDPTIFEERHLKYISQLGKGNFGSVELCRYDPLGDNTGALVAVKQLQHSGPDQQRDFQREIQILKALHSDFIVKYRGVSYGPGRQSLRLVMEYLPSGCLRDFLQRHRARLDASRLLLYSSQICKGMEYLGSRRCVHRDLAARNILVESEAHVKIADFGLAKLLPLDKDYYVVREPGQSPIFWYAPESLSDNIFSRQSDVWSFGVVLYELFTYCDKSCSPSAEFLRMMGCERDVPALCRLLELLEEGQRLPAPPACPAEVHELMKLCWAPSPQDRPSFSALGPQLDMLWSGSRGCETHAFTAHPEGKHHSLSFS
Sequence of TYK2(JH1domain-catalytic) (P29597 whole entry): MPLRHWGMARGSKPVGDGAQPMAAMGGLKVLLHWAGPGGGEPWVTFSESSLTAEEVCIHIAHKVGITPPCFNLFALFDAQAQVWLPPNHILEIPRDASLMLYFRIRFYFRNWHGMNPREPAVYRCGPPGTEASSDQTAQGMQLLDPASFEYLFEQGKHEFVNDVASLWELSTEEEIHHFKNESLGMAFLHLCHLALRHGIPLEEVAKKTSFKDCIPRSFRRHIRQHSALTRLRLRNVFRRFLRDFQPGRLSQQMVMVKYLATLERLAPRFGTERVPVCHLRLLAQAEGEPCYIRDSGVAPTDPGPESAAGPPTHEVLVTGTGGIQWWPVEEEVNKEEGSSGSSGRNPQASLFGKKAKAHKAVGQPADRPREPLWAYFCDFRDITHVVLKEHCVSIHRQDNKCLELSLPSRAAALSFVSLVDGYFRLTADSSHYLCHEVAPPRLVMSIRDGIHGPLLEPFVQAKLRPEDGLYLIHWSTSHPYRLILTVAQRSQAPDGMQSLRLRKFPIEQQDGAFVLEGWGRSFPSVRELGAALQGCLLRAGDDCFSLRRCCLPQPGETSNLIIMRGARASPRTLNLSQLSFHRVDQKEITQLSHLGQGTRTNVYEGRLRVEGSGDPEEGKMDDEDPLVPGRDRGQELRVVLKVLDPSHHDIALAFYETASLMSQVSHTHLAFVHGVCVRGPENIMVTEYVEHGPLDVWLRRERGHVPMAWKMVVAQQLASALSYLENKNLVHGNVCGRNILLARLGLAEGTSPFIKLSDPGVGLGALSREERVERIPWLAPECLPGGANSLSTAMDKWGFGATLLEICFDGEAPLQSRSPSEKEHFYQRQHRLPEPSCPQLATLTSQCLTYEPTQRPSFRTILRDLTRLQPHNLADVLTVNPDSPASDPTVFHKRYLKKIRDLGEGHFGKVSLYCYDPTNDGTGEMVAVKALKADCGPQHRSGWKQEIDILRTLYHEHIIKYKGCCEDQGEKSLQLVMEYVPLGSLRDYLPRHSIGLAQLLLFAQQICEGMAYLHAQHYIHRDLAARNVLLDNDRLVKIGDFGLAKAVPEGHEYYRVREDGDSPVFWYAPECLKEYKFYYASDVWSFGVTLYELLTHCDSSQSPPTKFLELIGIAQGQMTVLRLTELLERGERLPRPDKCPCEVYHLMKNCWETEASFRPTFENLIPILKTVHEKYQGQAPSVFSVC
Sequence of RSK1(Kin.Dom.1-N-terminal) (Q15418 whole entry): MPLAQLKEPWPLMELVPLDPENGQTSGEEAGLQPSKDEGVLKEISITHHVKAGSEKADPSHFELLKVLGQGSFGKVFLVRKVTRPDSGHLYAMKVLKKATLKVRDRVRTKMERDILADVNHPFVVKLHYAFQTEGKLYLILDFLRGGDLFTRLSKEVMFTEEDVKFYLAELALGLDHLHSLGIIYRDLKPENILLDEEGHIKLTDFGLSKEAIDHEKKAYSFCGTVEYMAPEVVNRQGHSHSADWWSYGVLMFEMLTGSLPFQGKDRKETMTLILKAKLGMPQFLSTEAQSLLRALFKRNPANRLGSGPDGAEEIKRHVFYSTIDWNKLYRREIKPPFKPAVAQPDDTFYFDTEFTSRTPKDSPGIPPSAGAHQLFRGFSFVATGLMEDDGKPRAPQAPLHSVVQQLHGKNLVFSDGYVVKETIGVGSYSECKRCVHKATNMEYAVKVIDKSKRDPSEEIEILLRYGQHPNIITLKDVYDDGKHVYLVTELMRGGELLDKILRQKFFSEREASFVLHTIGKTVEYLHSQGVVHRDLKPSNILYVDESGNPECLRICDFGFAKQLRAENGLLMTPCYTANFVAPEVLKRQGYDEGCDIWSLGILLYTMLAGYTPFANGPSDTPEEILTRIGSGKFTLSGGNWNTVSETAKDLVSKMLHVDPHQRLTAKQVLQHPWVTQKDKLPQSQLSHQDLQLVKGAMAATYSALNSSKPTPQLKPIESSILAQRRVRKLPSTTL
Sequence of RSK2(Kin.Dom.2-C-terminal) (P51812 whole entry): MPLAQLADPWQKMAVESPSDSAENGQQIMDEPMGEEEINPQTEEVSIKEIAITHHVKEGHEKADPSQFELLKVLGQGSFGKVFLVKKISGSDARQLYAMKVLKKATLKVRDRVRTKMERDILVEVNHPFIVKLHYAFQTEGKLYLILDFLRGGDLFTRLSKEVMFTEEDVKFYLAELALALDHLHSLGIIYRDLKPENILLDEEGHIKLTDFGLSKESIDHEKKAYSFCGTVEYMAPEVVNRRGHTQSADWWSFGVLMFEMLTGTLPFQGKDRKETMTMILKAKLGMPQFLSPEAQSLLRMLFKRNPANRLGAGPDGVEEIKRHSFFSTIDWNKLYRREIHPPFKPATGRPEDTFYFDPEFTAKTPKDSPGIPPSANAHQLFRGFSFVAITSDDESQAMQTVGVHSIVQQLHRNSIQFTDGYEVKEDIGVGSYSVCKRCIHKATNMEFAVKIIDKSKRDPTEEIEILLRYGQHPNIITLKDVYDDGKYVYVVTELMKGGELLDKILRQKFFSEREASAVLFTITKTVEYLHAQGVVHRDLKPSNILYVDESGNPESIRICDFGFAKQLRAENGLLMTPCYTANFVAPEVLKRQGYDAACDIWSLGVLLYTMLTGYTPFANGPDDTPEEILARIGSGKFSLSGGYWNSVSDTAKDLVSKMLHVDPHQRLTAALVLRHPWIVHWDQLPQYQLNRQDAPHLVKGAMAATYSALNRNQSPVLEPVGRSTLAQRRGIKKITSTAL

**Q.** Which results are given for CNc1ncc2cc(-c3ccc(-c4cccc(C)n4)cc3Cl)c(=O)n(C[C@H]3OC[C@H](N)CO3)c2n1 [compound 6, G-5555]?
**A.** Percent Control [1]: 100%; Percent Control [2]: 83%; Percent Control [3]: 94%; Percent Control [4]: 100%; Percent Control [5]: 79%; Percent Control (PFCDPK1 (P. falciparum)): 9.1%
